45 molecules from ChEMBL document CHEMBL1201862, “PubChem BioAssay data set” (2004) can be followed below.

SMILES strings stand for the structures.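 How tested: cells in 96-well plates exposed to compound for 48 hours at five concentrations. Abbreviation: GI50, concentration required for 50% inhibition of growth.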 Activity calls are given as the source filed them. Cut-off read from the data, not from the text of the source: active = GI50 up to about 1.1 µM and inactive = higher. Starred links: 1 amine or outer side, 2 acyl side, 3 side chain; linkers in the order of their positions; H or OH if unused. Non-standard residues stand in square brackets, D forms with d. Residues, ends and D or L forms follow the SMILES beside them. *: point of attachment. X47 = CCC(=O)CC1CC(C)CC(C(=O)[*:2])N1[*:1]; X46 = CCCCCCCCC(C)C(=O)*; Aib = CC(C)(N)C(=O)O; X48 = CC(CN(C)CCO)N* Some results are limits rather than exact numbers.

Among the test systems are BT-549; LXFL 529; KM-20L2; SNB-78; DMS-273; DLD-1; XF498; HOP-18.
Common to all, as to assay: inhibition of tumour cell growth, NCI panel, 48 h

Turning to `O=C1/C(=C\c2cccc(Oc3ccccc3)c2)SC(c2ccccc2)N1c1cc(Cl)ccc1Cl` (configuration not stated), the GI50 with BT-549 was 36.8 µM (inactive).
Same read-out and setting: for `Oc1ccc(/C=N/c2ccccc2O)cc1` the value was 67.8 µM (inactive); for `N#C/C(=C1/c2cc([N+](=O)[O-])ccc2-c2c1cc([N+](=O)[O-])cc2[N+](=O)[O-])N1CCCCC1`, > 100 µM (inactive); for `c1ccc(-c2ccc(-c3ccc(C4=NCCN4)cc3)o2)cc1`, 6.28 µM (inactive).
For `CCCNC(=O)OCc1c(COC(=O)NCCC)c(-c2ccc(Cl)c(Cl)c2)n2c1CCC2`, in the assay with BT-549, the GI50 is 4.07 µM (inactive).
With `O=C(O)c1nc(-c2ccc(Cl)c(Cl)c2)nc2ccc(Cl)cc12`, the GI50 was > 100 µM (inactive) with LXFL 529; > 100 µM (inactive) with KM-20L2; 27.9 µM (inactive) in the assay on SNB-78; 44.7 µM (inactive) in the assay with DMS-273; > 100 µM (inactive) in the assay on DLD-1.
Turning to `COc1ccc(N2C(=O)[C@@H]3[C@H](C2=O)c2[nH]c4ccccc4c2C2CCC(C(C)(C)C)C[C@@H]23)cc1` (some centres not stated), the GI50 in the assay with LXFL 529 is 39.4 µM (inactive); with KM-20L2, 61.9 µM (inactive); in the assay with SNB-78 it was 23.7 µM (inactive); in the assay with DMS-273, 41.8 µM (inactive); in the assay on DLD-1, 37.7 µM (inactive); in the assay on XF498 it was 44.8 µM (inactive).
With `CN(c1ccc(Cl)cc1)S(=O)(=O)c1ccc([N+](=O)[O-])cc1`, the GI50 in the assay with BT-549 was > 100 µM (inactive).
The same measure, in the same setting: in the case of `C/C(=N/NC(=S)Nc1ccc([N+](=O)[O-])cc1)c1cccc(/C(C)=N\NC(=S)Nc2ccc([N+](=O)[O-])cc2)n1` it was 0.463 µM (active); in that of `Cc1cc2nc3c(C#N)c4c(c(Nc5ccc(Cl)cc5)n3c2cc1C)CCC4`, 23.8 µM (inactive); in that of `CSC1(SC2=NCCN2)SC2(NCCN2)S1`, 21.4 µM (inactive).
For `COc1ccc(/C=C/c2cc(O)cc(OC3OC(CO)C(O)C(O)C3O)c2)cc1O` (configuration not stated), the GI50 in the assay with BT-549 was > 100 µM (inactive).
Take `C[n+]1c2ccccc2c(NCC(=O)O)c2ccccc21`: the GI50 with LXFL 529, in the assay with KM-20L2, in the assay on SNB-78, with HOP-18, in the assay on DMS-273 and in the assay with DLD-1 was > 100 µM (inactive) each time.
Consider `CC(C)(C)OC(=O)CC(NC(=O)OC(C)(C)C)C(=O)NC(C(=O)O)C(O)c1ccccc1` (configuration not stated), for which, in the assay on BT-549, the GI50 was > 100 µM (inactive).
As to `CO[C@H]1C[C@H](O[C@H]2CC[C@@]3(C)[C@H](CC[C@@H]4[C@@H]3CC[C@]3(C)[C@@H](C5=CC(=O)OC5)CC[C@]43O)C2)O[C@H](C)[C@H]1O`, the GI50 in the assay with BT-549 was < 0.01 µM (active).
Still for that read-out and setting: in the case of `COc1ccc(N2C(=O)C(Cl)C2c2cc3cc(Br)ccc3nc2Cl)cc1` (configuration not stated) it was 4.46 µM (inactive); in that of `Nc1nc(N)nc(CC(=O)O)n1`, > 100 µM (inactive); in that of `CCOP(C)(=O)C(Cc1c[nH]c2ccccc12)C(=O)O` (configuration not stated), > 100 µM (inactive).
With `COc1ccc(/C=C/C(=N/NC(=O)N/N=C(/C=C/c2ccc(OC)cc2)C(C)(C)CN2CCCCC2)C(C)(C)CN2CCCCC2)cc1`, in the assay with BT-549, the GI50 was 1.98 µM (inactive).
Regarding `CN(C)c1ccc(/C=C2\Oc3ccccc3C2=O)cc1`, the GI50 with BT-549 was > 100 µM (inactive).
Still for that read-out and setting: for `OC1(C(O)(c2ccc(-c3ccccc3)cc2)c2ccc(-c3ccccc3)cc2)CCCCC1` the value was > 100 µM (inactive); for `O=C1c2ccccc2-n2nnnc2C2CSCN12` (configuration not stated), > 100 µM (inactive).
With `COc1cc(C/C=C/c2ccccc2)c(OC)cc1O` [VIOLASTYRENE], the GI50 in the assay on BT-549 was 24.7 µM (inactive).
Still for that read-out and setting: in the case of `Cc1nc2ccc(F)cc2c2c1CCO2` it was 80 µM (inactive).
In the case of `O=S(=O)(O)c1cc(/N=N/c2c(O)ccc3ccccc23)cc2c(S(=O)(=O)O)cccc12`, the GI50 in the assay with BT-549 was > 100 µM (inactive).
Same read-out and setting: for `Cc1nnc2nc(-c3ccc(Cl)cc3Cl)cc(-c3ccc(Cl)cc3)n12` the value was > 100 µM (inactive); for `COC(=O)CNS(=O)(=O)c1ccc(-c2c3nc(c(-c4ccc(S(=O)(=O)NCC(=O)OC)cc4)c4ccc([nH]4)c(-c4ccc(S(=O)(=O)NCC(=O)OC)cc4)c4nc(c(-c5ccc(S(=O)(=O)NCC(=O)OC)cc5)c5ccc2[nH]5)C=C4)C=C3)cc1`, > 100 µM (inactive).
As to `COc1ccc(C(SCCO)(c2ccccc2)c2ccc(OC)cc2)cc1`, the GI50 in the assay on BT-549 was 19.5 µM (inactive).
Same read-out and setting: in the case of `CC(=O)N(C)c1ccc(Nc2ccnc3ccc4nn(C)nc4c23)cc1` it was 31.8 µM (inactive); in that of `CCCNC(=O)NNC(=O)c1c[nH]c2nc(C)ccc2c1=O`, > 100 µM (inactive); in that of `CCCCCCCCC(C)C(=O)N1CCCC1C(=O)N1C(CC(=O)CC)CC(C)CC1C(=O)NC(C)C(=O)NC(C)(C)C(=O)NC(C)(C)C(=O)NC(C(=O)NC(C)C(=O)NC(C)(C)C(=O)NC(C)(C)C(=O)NC(C)CN(C)CCO)C(C)CC` (configuration not stated) (X46-P[X47]A[Aib][Aib]IA[Aib][Aib]-X48; configuration not given here), 1.57 µM (inactive).
The same measure, in the same setting: in the case of `C=CC(C)CCC(C/C=C(\C)CCCC(C)C)C(=C)CCCC(C)C` (configuration not stated) it was > 100 µM (inactive).
In the case of `COc1cc2c(c(OC)c1OC)-c1ccc(SC)c(=O)cc1C(CC(=O)Oc1ccccc1F)C2` (configuration not stated), the GI50 in the assay on LXFL 529 is 0.0266 µM (active); with KM-20L2, 0.0127 µM (active); with SNB-78, 0.0206 µM (active); in the assay with DMS-273, 0.00991 µM (active); in the assay with DLD-1, 0.0196 µM (active).
For the molecule `N#CC[C@@H](O)COc1ccccc1`, in the assay with BT-549, the GI50 was > 100 µM (inactive).
Still for that read-out and setting: in the case of `CC(=O)OCCOCn1cnc2c(Cl)nc(Cl)nc21` it was 18.7 µM (inactive).
In the case of `O=C1N=CN=C2C=CC(Cl)=C(I)C12` (configuration not stated), the GI50 was > 100 µM (inactive) with LXFL 529; > 100 µM (inactive) with KM-20L2; 73.8 µM (inactive) in the assay with DMS-273; 58.5 µM (inactive) with DLD-1; 51.1 µM (inactive) with XF498.
As for `c1ccc(SC(Sc2ccccc2)c2ccc3c(c2)OCO3)cc1`, the GI50 in the assay on BT-549 is > 100 µM (inactive).
As for `N#CC(C(=O)O)C(c1c(Cl)cccc1Cl)C(C#N)C(=O)O` (configuration not stated), the GI50 in the assay on BT-549 was > 100 µM (inactive).
On the same count and under the same terms, in the case of `CC(=O)OC1C(O)COC(O[C@H]2CC[C@]34C[C@]35CC[C@]3(C)C([C@@]6(C)CC[C@@H](C(C)(C)O)O6)[C@@H](O)C[C@@]3(C)C5C[C@H](OC3OCC(O)C(O)C3O)[C@H]4C2(C)C)C1OC1OCC(O)C(O)C1O` (some centres not stated) it was > 100 µM (inactive); in that of `CC(C)(C)O/N=C/c1cc(NC(=S)c2ccsc2)ccc1Cl`, 13.9 µM (inactive); in that of `N#Cc1nc(COCCOCc2ccc(F)cc2)oc1N`, > 100 µM (inactive).
On to `Cc1ccc(Oc2ccc(C(=O)c3cccc(C(=O)c4ccc(Oc5ccc(C)cc5)cc4)n3)cc2)cc1`, for which the GI50 in the assay on LXFL 529, with KM-20L2, with SNB-78, in the assay with HOP-18, in the assay on DMS-273 and with DLD-1 was > 100 µM (inactive) each time.
For the molecule `COc1cc(OC)cc(Oc2nc3ccc(C(F)(F)F)cc3nc2-c2ccccc2)c1`, the GI50 in the assay on BT-549 was > 100 µM (inactive).
Same read-out and setting: for `C=C1c2nc3ccccc3n2C=C(c2ccc(OC)cc2)N1c1ccccc1` the value was 6.64 µM (inactive).
In the case of `CCCCCCCCCCCCCCCCCCNc1ccn(C2OC(COP(=O)(O)OCC3OC(n4ccc(N)nc4=O)C(O)C3O)C(O)C2O)c(=O)n1` (configuration not stated), the GI50 in the assay with BT-549 was > 49.5 µM (inactive).
